This note sets out measurements from patent US8337941B2, “Fluorescent substrates for monoamine transporters as optical false neurotransmitters” (The Trustees of Columbia University in the City of New York, priority 2006, dated 2012).

The structures appear in SMILES notation. “Also recorded” adds a separate entry of the source. Read-outs that look alike come from different tables or passages of the source.

Series [1] in a line: photophysical characterization (fluorescence spectra). It counts as physicochemical. Conditions: for λem / λex: 100 mM sodium phosphate pH 7.4, 10 uM probe; for pH dependency of fluorescence: spectra at pH 2, 5, 7.4, 9 and 12. The protocol: All spectra were recorded in 100 mM sodium phosphate (pH 7.4) unless otherwise indicated. Recorded λmax is that of the longest wavelength transition. Extinction coefficients were reported as the average of at least three independent preparations of the probes. Fluorescence measurements were taken on a Jobin Yvon Fluorolog fluorescence spectrofluorometer in 100 mM sodium phosphate pH 7.4 at a concentration of 10 uM in probe, excited at their respective λmax.

Series [2] relates to DA terminals. Briefly: labeling and destaining of DA terminals in live striatal acute slice. In kind it is cell-based, mouse. An excerpt:
Distribution of FFN 511 was compared to DA neurons using striatal slices prepared from a transgenic mouse expressing GFP under the control of tyrosine hydroxylase (TH) promoter (36).
As FFN 511 was applied in a “pulse-chase” pattern, with the extracellular probe washed out following accumulation in the terminals, these experiments essentially measure the amount of DA remaining in the terminal and the released transmitter. The probability of release from a given terminal under a particular stimulus condition is simply the fractional destaining, i.e., Pterminal=Ft/(Ft0−Fbkgnd) Pterminal=1−(Ft−Fbkg)/(Ft0−Fbkg),
where Ft0 is the initial fluorescent intensity and Fbkgnd is the label remaining after maximal stimulus is applied.

Series [3] has as its target T1, VMAT2 (Homo sapiens, UniProt Q05940).
T1 construct: expressed in transfected cells; host or cells: HEK cells, stably transfected; membranes
Briefly: in vitro competitive binding assay, membranes from HEK cells stably transfected with VMAT2. Conditions: inhibition of binding to membranes from HEK cells stably transfected with VMAT2; read-out: apparent IC50. An excerpt: On the basis of initial encouraging results, compound FFN 511 was submitted to rigorous investigation, from which it emerged as a promising imaging probe. Catecholamines are stored in chromaffin large dense core vesicles (LDCVs), which contain vesicular monoamine transporter 1 (VMAT1). Although VMAT 1 and 2 are distinct proteins, they share many functional characteristics.

Series [4] has as its system chromaffin cells. Briefly: probe uptake and labeling in chromaffin cells by fluorescence microscopy. In kind it is cell-based, mouse. An excerpt: Chromaffin cells are an excellent model system as the cytoplasm of these cells in culture is almost completely filled with large dense core vesicles that accumulate catecholamines by VMAT.
If necessary, metabolism of the probes by MAO (present in mitochondria) may be reduced by the addition of a suitable inhibitor (deprenyl for MAO B, clorgyline for MAO A) or by simply methylating the α-position of the amine (10, 14).
Catecholamines are stored in chromaffin large dense core vesicles (LDCVs), which contain vesicular monoamine transporter 1 (VMAT1). Although VMAT 1 and 2 are distinct proteins, they share many functional characteristics.

Series [5] deals with chromaffin cells. The series is described as follows: TIRF assay of stimulation-dependent exocytosis from FFN 511-loaded chromaffin granules. Conditions: single LDCV. In kind it is cell-based, mouse. An excerpt: Total internal reflectance fluorescence microscopy (TIRF) was used as a functional assay for the ability of FFN 511-loaded chromaffin granules to undergo stimulation-dependent exocytosis. TIRF allows for fluorescence excitation in a narrow −100 nm thick layer of the cell immediately adjacent to the surface.

Series [6] has as its system evoked DA release. Briefly: evoked DA release in slice measured by cyclic voltammetry. It counts as cell-based, mouse. An excerpt:
FFN 511 was destained by neuronal stimulation in a calcium-dependent manner under conditions identical to those that release DA as measured by simultaneous cyclic voltammetry. (FFN 511 is not oxidized and not measured by cyclic voltammetry).

Where [7] appears, read: 4 Hz stimulation, in the presence of calcium.

T1 sequence (Q05940 whole entry, species assumed): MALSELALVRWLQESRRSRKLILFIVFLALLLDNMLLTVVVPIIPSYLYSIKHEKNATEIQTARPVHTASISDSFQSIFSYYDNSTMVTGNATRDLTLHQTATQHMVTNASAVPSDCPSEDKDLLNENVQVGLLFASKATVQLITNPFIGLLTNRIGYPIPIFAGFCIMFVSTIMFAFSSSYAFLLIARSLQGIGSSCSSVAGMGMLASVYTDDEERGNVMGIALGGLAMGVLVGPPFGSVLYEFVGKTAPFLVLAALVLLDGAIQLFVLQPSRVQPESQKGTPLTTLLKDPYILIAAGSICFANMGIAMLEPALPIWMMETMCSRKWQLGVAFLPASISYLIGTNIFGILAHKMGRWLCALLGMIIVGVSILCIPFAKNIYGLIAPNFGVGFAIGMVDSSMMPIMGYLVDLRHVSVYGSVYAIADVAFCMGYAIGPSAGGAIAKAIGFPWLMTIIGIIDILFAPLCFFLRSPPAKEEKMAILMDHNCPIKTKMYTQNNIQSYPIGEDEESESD

As for `NCCNc1ccc2ccc(=O)oc2c1` [Probe 505, 7-(2-Amino-ethylamino)-coumarin], in series [1], the λem was 455 nm and the λex amounted to 361 nm.
For the compound `COc1cc2c(cc1OC)C1CC(=O)C(CC(C)C)CN1CC2` (stereo not shown) [tetrabenazine, reference compound], the “inhibition of 511 labeling by VMAT2 inhibitors” value in series [2] (striatal slice, reserpine 10 μM, 2 hours (FIG. 36B)) is given as “strongly inhibited”.
For the compound `CC(N)Cc1ccccc1` (stereo not shown) [amphetamine, reference compound], the “loss of 511 fluorescence” value in series [2] (10 μM, 10 min, striatal slice) is given as roughly 50%.
For `CCN(CC)c1ccc2c(C)cc(=O)oc2c1` [Coumarin 1, reference compound], in series [1], the “behaviour of fluorescence in water / aqueous buffer solution” value is on record as “drops in water”, the λem worked out at 470 nm and the λex is listed as 384 nm.
As for `NCCc1cc(=O)oc2c3c4c(cc12)CCCN4CCC3` [Probe 511, 8-(2-Amino-ethyl)-2,3,5,6-tetrahydro-1H,4H-11-oxa-3a-aza-benzo[de]anthracen-10-one], the 50% inhibitory concentration (IC50) in series [3] came to 2500 nM. The “labeling of chromaffin cells” value in series [4] is on record as “selectively label healthy chromaffin cells”. Besides, in series [4] (500 nM in physiological saline solution), the “duration of linear increase of intracellular probe concentration (fluorescence)” value is on record as “at least 60 minutes”. Also, the “uptake into chromaffin vesicles” value in series [4] (At 50 nM) is on record as “actively taken up into chromaffin vesicles”. In addition, in series [4] (FFN 511 500 nM, single chromaffin cells), the “time window in which uptake is linear” value was in the range of 10 to 60 min. Further, in series [4] (abolished by chloroquine exposure), the “accumulation in acidic compartments of the cells” value is recorded as “accumulates in acidic compartments”. Further, in series [4] (chloroquine 100 μM), the “fluorescence after addition of lipophilic weak base chloroquine” value is “completely abolished”. The “staining of cell nuclei” value in series [4] (chromaffin cells) is “nuclear exclusion”. For the same compound, in series [4] (chromaffin cells, TBZ 10 uM (FIG. 20), p=0.001 vs control), the “effect of VMAT inhibitor tetrabenazine on probe uptake” value was “abolished by Tetrabenazine; also recorded: inhibited by tetrabenazene”. Moreover, the “release from LDCVs on high potassium stimulation” value in series [5] is reported as “released by exocytosis”. In series [2] (setting [7]), the “number of action potentials to release about 50% of the terminal content” value was 640 action potentials and the “time to release about 50% of the terminal content” value was roughly 160 s. In addition, in series [2] (acute slices, mouse CNS), the “fluorescent labeling in corpus callosum” value is on record as “no labeling”, the “fluorescent labeling in cortex” value is given as “fainter fluorescence with patchy distribution” and the “fluorescent labeling in striatum” value is “clearly observed in presynaptic terminals”. The “FFN 511 labeling after unilateral 6-OHDA lesion of DA neurons” value in series [2] (injected hemisphere, slices 21 days post-lesion) was “nearly completely abolished”. The “calcium dependence of stimulated destaining” value in series [2] (neuronal stimulation) is on record as “completely dependent on the presence of calcium”. Also, in series [6], the “effect on evoked DA release at higher concentrations” value is recorded as “reduced evoked DA release” and the “effect on evoked DA release at levels sufficient to label the terminals” value was “did not alter evoked DA release”. Moreover, the emission maximum in series [1] (compared with GFP) is recorded as roughly 500 nm. Moreover, the “pH dependency of fluorescence” value in series [1] is “increased fluorescence seen at alkaline pH values”.
Regarding `COC(=O)[C@H]1[C@H]2C[C@@H]3c4[nH]c5cc(OC)ccc5c4CCN3C[C@H]2C[C@@H](OC(=O)c2cc(OC)c(OC)c(OC)c2)[C@@H]1OC` [reserpine, reference compound], the “inhibition of 511 labeling by VMAT2 inhibitors” value in series [2] is listed as “strongly inhibited”.
For `CN(C)c1ccc2cc3ccc(N(C)C)cc3nc2c1` [acridine orange, reference compound], the “behaviour of fluorescence in water / aqueous buffer solution” value in series [1] was “drops in water”.
In series [1], `O=C(O)C(F)(F)F.O=c1cc(O)c2ccc(N3CCNCC3)cc2o1` [Probe 484, 4-(4—Hydroxy-coumarin-7-yl)-piperazin-1-ium trifluoroacetate] returned a λem of 385 nm and a λex of 319 nm. Further, the “pH dependency of fluorescence” value in series [1] (trifluoroacetate) was “possess pH-dependency; also recorded: shift in fluorescence emission maxima seen with changing pH”.
Consider `NCCc1ccc(O)c(O)c1` [DA, dopamine, reference compound], for which the IC50 in series [3] is roughly 1000 nM.

One may read the IC50 as the concentration needed to halve the response being measured.
